Measured values reported in US6540996B1, “Compound screening methods” (priority 1999, dated 2003).

How the values were obtained:
C. elegans [1] = test: plate (drop) assay: nematodes fed E. coli lawn pre-loaded with the compound; format: in vivo
Procedure: (§1) Using two kinds of assays, the optimal concentration of compounds that inhibit the activity SERCA has been determined. The first assay is designated the drop or plate assay in which the nematodes are fed E. coli strains pre-loaded with the compound. In a second assay, the compound is administrated to the worm in liquid culture.
A standard plate drop assay is performed according to the following protocol. 4 ml NGM agar (see “The nematode C. elegans” Ed. by William B. Wood and the Community of C. elegans Researchers, CSHL Press, 1988, pg589) is into 3 cm plates and seeded with approximately 5 μl of an E. coli overnight culture and grown preferably for one week at room temperature. Approximately 10 μl of test compound dissolved in DMSO or other suitable solvent is pipetted onto the bacterial lawn so that the lawn is covered completely. After overnight soaking in or compound, one C. elegans (L4 stage) per plate is put onto the bacterial lawn. Plates are incubated at 21° C. and checked after some hours.

C. elegans [2] = test: liquid assay: compound administered to the worm in liquid culture; format: in vivo
Description: as §1

[3] = test system: C. elegans wild-type worms and mutant strain unc-31; test: effect on pharynx pumping behaviour; format: in vivo
Procedure: The effect of thapsigargin on pharynx pumping behaviour was also determined. In wild-type worms, all animals stopped pumping after 10 minutes.

[4] = test system: C. elegans strains unc-31 and srf-3; test: production of progeny after thapsigargin treatment in different C. elegans strains; format: in vivo
Procedure: The effect of thapsigargin on the production of progeny was determined for a number of different C. elegans strains. The numbers of progeny produced following thapsigargin treatment was counted for an average of 15 animals, the results are summarised as follows: […]

[5] = test system: C. elegans strain UG530 (harboring plasmid pGK28); test: thapsigargin sensitivity of worms carrying the pGK28 (Phe259Val SERCA) transgene; format: in vivo; details: for stage reached by progeny on thapsigargin: 10 μl drops of 5 to 0.05 mM thapsigargin in DMSO, 5 days
Procedure: FIG. 3 illustrates the growth of C. elegans strain UG530 (strain harboring plasmid pGK28) on different concentrations of thapsigargin. The stage of the progeny was determined 5 days after adults were put on the plates. […] These were differentiated based on a GFP marker also present on this transgene.
The effect of thapsigargin on worms carrying a pGK28 transgene was measured in the following way: 10 μl of thapsigargin dissolved in DMSO (5, 2.5, 1, 0.5, 0.25, 0.1, and 0.05 mM respectively) was added onto a drop of E. coli strain OP50cs2 in 12-well plates. The wells with compounds were placed at 10 C. overnight, after which […] young adults were added to the wells. The pharynx pumping rate and movement behaviour was scored for the ten worms after 10 minutes and after one hour (short term effect). Furthermore the wells were scored for protruding vulva and rectum, production of progeny (few eggs in body) after one day (mid-term-effects), and for progeny after four days (long term effect)

SERCA Phe256Val = details: substitution Phe256Val in hamsters (Yu et al., 1999); cited from earlier work
[6] = mutant strain unc-31, 1 mM thapsigargin

O=C1C=CC(=O)C=C1 [1,4-benzoquinone]
observable effect at the highest concentration tested (C. elegans [1]; 100 mM drop, 500 μM end concentration): did not result in a clear observable effect

CC(C)(C)c1cc(O)c(C(C)(C)C)cc1O [2,5-di-tert butylhydroquinone]
phenotype of worms and progeny (C. elegans [2]; 1 mM): progeny exhibiting delayed growth and the worms be observed to be thinner
phenotype of the worms (C. elegans [1]; 500 μM): pale, starved, thin worms with slow movement, defective gonad, constipated and reduced brood size

C/C=C(/C)C(=O)O[C@H]1C(C)=C2[C@H]([C@@H]1OC(=O)CCCCC)[C@@](C)(OC(C)=O)C[C@H](OC(=O)CCC)[C@@]1(O)[C@H]2OC(=O)[C@@]1(C)O [Thapsigargicin]
phenotype of worms and progeny (C. elegans [2]; 1000 μM, 250 μM, 62.5 μM and 16 μM): small worms with slow and loopy movement, a protruding vulva, and no progeny (or no progeny that grows up)
growth and progeny (C. elegans [2]; lower concentration 10 μM): delayed growth and reduced progeny
brood size (C. elegans [1]; lower concentrations 3 μM and 1.5 μM): slightly reduced brood size

C/C=C(/C)C(=O)O[C@H]1C(C)=C2[C@H]([C@@H]1OC(=O)CCCCCCC)[C@@](C)(OC(C)=O)C[C@H](OC(=O)CCC)[C@@]1(O)[C@H]2OC(=O)[C@@]1(C)O [thapsigargin]
size and movement of the worms (C. elegans [2]; 100, 50 and 20 μM): small worms which show slow and loopy movement
vulva and progeny (C. elegans [2]; 100, 50 and 20 μM): protruding vulva, and no progeny (or no progeny that grows up)
progeny and growth (C. elegans [2]; lower concentrations 10 μM and 5 μM): reduced number of progeny and delayed growth
pumping speed after restart [3, 6]: one third of normal speed
restart of pumping [3, 6]: some start again after half an hour
time after which all worms stopped pumping [3, 6]: 10 min
time after which all animals stopped pumping ([3]; wild-type worms): 10 min
number of progeny produced ([4]; strain srf-3, 1 mM thapsigargin, average of 15 animals (control 50)): 18,3
number of progeny produced ([4]; strain unc-31, 0.5 mM thapsigargin, average of 15 animals (control 132)): 35
number of progeny produced ([4]; strain unc-31, 1 mM thapsigargin, average of 15 animals (control 132)): 5,6
appearance and movement of the worms (C. elegans [1]; 5 μM, 2.5 μM and 1.25 μM): pale and thin and have a slow and irregular movement, with an increased amplitude
brood size (C. elegans [1]; 5 μM, 2.5 μM and 1.25 μM): very small
gonad, eggs and vulva (C. elegans [1]; 5 μM, 2.5 μM and 1.25 μM): defective gonad with only very few eggs, and a protruding vulva
plate drop response, backing, pumping, constipation (C. elegans [1]; 5 μM, 2.5 μM and 1.25 μM): No plate drop response is observed, and the worms show poor backing, reduced pumping and strong constipation
rectum (C. elegans [1]; 5 μM, 2.5 μM and 1.25 μM): Some worms also have a protruding rectum
restart of pharynx pumping (C. elegans [1]; 5 μM, 2.5 μM and 1.25 μM): Within an hour the worms restart pumping, although at a low level
time until the nematode stops pharynx pumping (C. elegans [1]; 5 μM, 2.5 μM and 1.25 μM): ≤ 10 min
stage reached by progeny (C. elegans [1]; 5 μM, 2.5 μM and 1.25 μM, after four days): Progeny reaches L2 stage only after four days
brood size (C. elegans [1]; lower concentrations 0.5 μM, 0.25 μM, 0.125 μM): reduced brood size
stage reached by progeny on thapsigargin ([5]; GFP-animals harboring pGK28 (Phe259Val SERCA)): grew up to adult or L4
amount of progeny on thapsigargin ([5]; nematodes harboring the Phe259Val SERCA mutant compared with wild-type): slightly more progeny than wild-type
stage reached by progeny on thapsigargin ([5]; non-GFP animals (not harboring the mutated SERCA)): arrested at L1 and L2 and never grew up further than L3
protruding vulva and rectum-phenotype ([5]; strain UG530 (harboring pGK28) treated with thapsigargin): not or were only occasionally observed
protruding vulva and rectum-phenotype ([5]; wild-type nematodes treated with thapsigargin): very often observed
resistance to thapsigargin inhibition (SERCA Phe256Val): 40 fold
